In patent publication US12091411B2, “IRAK degraders and uses thereof” (Kymera Therapeutics, Inc., priority 2022, dated 2024):
Read-outs that look alike come from different tables or passages of the source.

Molecular target: T1, IRAK4 (Homo sapiens, UniProt Q9NWZ3)
T1 construct: Degradation of IRAK4 in OCI-LY10 was quantitatively measured using Meso Scale Discovery technology; endogenous in cells; host or cells: OCI-LY10
T1 sequence (Q9NWZ3 1-460): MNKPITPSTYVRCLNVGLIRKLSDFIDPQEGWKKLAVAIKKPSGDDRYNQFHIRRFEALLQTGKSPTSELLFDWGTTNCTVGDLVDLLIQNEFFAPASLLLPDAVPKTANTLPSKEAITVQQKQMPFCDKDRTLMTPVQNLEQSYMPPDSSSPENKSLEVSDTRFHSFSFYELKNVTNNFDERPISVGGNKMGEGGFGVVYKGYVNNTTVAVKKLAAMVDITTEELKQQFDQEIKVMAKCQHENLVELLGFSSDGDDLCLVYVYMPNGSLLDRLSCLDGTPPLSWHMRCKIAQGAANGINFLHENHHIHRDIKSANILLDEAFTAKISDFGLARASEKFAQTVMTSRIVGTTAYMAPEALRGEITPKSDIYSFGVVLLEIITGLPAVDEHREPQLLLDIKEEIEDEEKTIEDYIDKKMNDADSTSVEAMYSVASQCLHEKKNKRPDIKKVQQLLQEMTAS
Experiment: IRAK4 MSD Degradation in OCI-LY10
Assay type: cell-based
Conditions: OCI-LY10 cells, MSD
Summary of the method: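 DC50, from a three-parameter logistic fit and reported as letter bins A (<0.01 μM), B, C, D (>0.2 μM or not tested), reflects IRAK4 loss measured by MSD electrochemiluminescence in OCI-LY10 lysates. Treatment: 8 doses, 1:3 steps, top 1 to 10 μM, 4 to 24 h, 37 °C.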

[1] = 4 hrs incubation, read-out: IRAK4 degradation in OCI-LY10 at 4 hrs: DC50
[2] = 24 hrs incubation, read-out: IRAK4 degradation in OCI-LY10 at 24 hrs: DC50

| Structure (SMILES) | DC50 [1] | DC50 [2] |
| --- | --- | --- |
| Cn1c(=O)n(C2CCC(=O)NC2=O)c2cccc([C@H]3CCN(C[C@H]4CC[C@H](n5cc6cc(NC(=O)c7cccc(C#N)n7)c(C(C)(C)O)cc6n5)CC4)C[C@H]3F)c21 (some centres unmarked) [I-651] | > 200 nM | > 200 nM |
| Cn1c(=O)n(C2CCC(=O)NC2=O)c2cccc(C3CCN(C[C@H]4CC[C@H](n5cc6cc(NC(=O)c7cccc(C(F)F)n7)c(C(C)(C)O)cc6n5)CC4)C[C@@H]3F)c21 (some centres unmarked) [I-652] | > 200 nM | > 200 nM |
| Cn1c(=O)n(C2CCC(=O)NC2=O)c2cccc([C@@H]3CCN(C[C@H]4CC[C@H](n5cc6cc(NC(=O)c7cccc(C(F)F)n7)c(C(C)(C)O)cc6n5)CC4)C[C@H]3F)c21 (some centres unmarked) [I-653] | > 200 nM | < 10 nM |
| Cn1c(=O)n(C2CCC(=O)NC2=O)c2cccc([C@H]3CCN(C[C@H]4CC[C@H](n5cc6cc(NC(=O)c7cccc(C(F)F)n7)c(C(C)(C)O)cc6n5)CC4)C[C@@H]3F)c21 (some centres unmarked) [I-654] | > 200 nM | > 200 nM |
| Cn1c(=O)n(C2CCC(=O)NC2=O)c2cccc([C@H]3CCN(C[C@H]4CC[C@H](n5cc6cc(NC(=O)c7cccc(C(F)F)n7)c(C(C)(C)O)cc6n5)CC4)C[C@H]3F)c21 (some centres unmarked) [I-655] | > 200 nM | > 200 nM |
| Cn1c(=O)n(C2CCC(=O)NC2=O)c2cccc([C@H]3CCN(C[C@H]4CC[C@H](n5cc6cc(NC(=O)c7cccc(C(F)(F)F)n7)ncc6n5)CC4)C[C@@H]3F)c21 (some centres unmarked) [I-657] | > 200 nM | > 200 nM |
| Cn1c(=O)n(C2CCC(=O)NC2=O)c2cccc(N3CCN(CC4COC5(C4)CN(C[C@H]4CC[C@H](n6cc(NC(=O)c7cnn8ccc(N9C[C@H]%10C[C@@H]9CO%10)nc78)c(C(F)F)n6)CC4)C5)CC3)c21 (some centres unmarked) [I-660] | > 200 nM | < 10 nM |
| Cn1c(=O)n(C2CCC(=O)NC2=O)c2cccc(N3CCN(CC4COC5(C4)CN(C[C@H]4CC[C@H](n6cc7cc(NC(=O)c8cccc(C(F)(F)F)n8)ccc7n6)CC4)C5)CC3)c21 (some centres unmarked) [I-661] | > 200 nM | > 200 nM |
| Cn1c(=O)n(C2CCC(=O)NC2=O)c2cccc(N3CCN(CC4COC5(C4)CN(C[C@H]4CC[C@H](n6cc7cc(NC(=O)c8cccc(C(F)(F)F)n8)ncc7n6)CC4)C5)CC3)c21 (some centres unmarked) [I-662] | > 200 nM | > 200 nM |
| Cn1c(=O)n(C2CCC(=O)NC2=O)c2cccc(N3CCN(CC4COC5(C4)CN(C[C@H]4CC[C@H](n6cc7cc(NC(=O)c8cccc(C(F)(F)F)n8)c(C(C)(C)O)cc7n6)CC4)C5)CC3)c21 (some centres unmarked) [I-663] | > 200 nM | > 200 nM |
| Cn1c(=O)n(C2CCC(=O)NC2=O)c2cccc(C3CCN(CC4COC5(C4)CN(C[C@H]4CC[C@H](n6cc(NC(=O)c7cnn8ccc(N9C[C@H]%10C[C@@H]9CO%10)nc78)c(C(F)F)n6)CC4)C5)CC3)c21 (some centres unmarked) [I-664] | > 200 nM | > 200 nM |
| Cn1c(=O)n(C2CCC(=O)NC2=O)c2cccc(N3CCN(CC4COC5(C4)CN(C[C@H]4CC[C@H](n6cc7cc(NC(=O)c8cccc(C(F)(F)F)n8)ccc7n6)CC4)C5)CC3)c21 (some centres unmarked) [I-665] | > 200 nM |  |
| Cn1c(=O)n(C2CCC(=O)NC2=O)c2cccc(N3CCN(CC4COC5(C4)CN(C[C@H]4CC[C@H](n6cc7cc(NC(=O)c8cccc(C(F)(F)F)n8)ncc7n6)CC4)C5)CC3)c21 (some centres unmarked) [I-666] | > 200 nM |  |

Further lines, results first:

| DC50 [1] | DC50 [2] | Structure (SMILES) |
| --- | --- | --- |
| > 200 nM | > 200 nM | Cn1c(=O)n(C2CCC(=O)NC2=O)c2cccc(C3CCN(CC4COC5(C4)CN(C[C@H]4CC[C@H](n6cc7cc(NC(=O)c8cccc(C(F)(F)F)n8)c(C(C)(C)O)cc7n6)CC4)C5)CC3)c21 (some centres unmarked) [I-667] |
| > 200 nM | 10 to 100 nM | Cn1c(=O)n(C2CCC(=O)NC2=O)c2cccc(N3CC4(CCN(C[C@H]5CC[C@H](n6cc7cc(NC(=O)c8cccc(C(F)(F)F)n8)ncc7n6)CC5)CC4(F)F)C3)c21 (some centres unmarked) [I-668] |
| > 200 nM | < 10 nM | Cn1c(=O)n(C2CCC(=O)NC2=O)c2cccc(N3CC4(CCN(C[C@H]5CC[C@H](n6cc(NC(=O)c7cnn8ccc(N9C[C@H]%10C[C@@H]9CO%10)nc78)c(C(F)F)n6)CC5)CC4(F)F)C3)c21 (some centres unmarked) [I-669] |
| > 200 nM | < 10 nM | Cn1c(=O)n(C2CCC(=O)NC2=O)c2cccc(OC3CC(N4CCN(C[C@H]5CC[C@H](n6cc(NC(=O)c7cnn8ccc(N9C[C@H]%10C[C@@H]9CO%10)nc78)c(C(F)F)n6)CC5)CC4)C3)c21 (some centres unmarked) [I-670] |
| > 200 nM | < 10 nM | Cn1c(=O)n(C2CCC(=O)NC2=O)c2cccc(C3CN([C@H]4CCN(C[C@H]5CC[C@H](n6cc7cc(NC(=O)c8cccc(C(F)(F)F)n8)ccc7n6)CC5)C[C@@H]4F)C3)c21 (some centres unmarked) [I-671] |
| > 200 nM | < 10 nM | Cn1c(=O)n(C2CCC(=O)NC2=O)c2cccc(C3CN([C@H]4CCN(C[C@H]5CC[C@H](n6cc7cc(NC(=O)c8cccc(C(F)(F)F)n8)ncc7n6)CC5)C[C@@H]4F)C3)c21 (some centres unmarked) [I-672] |
| > 200 nM | < 10 nM | Cn1c(=O)n(C2CCC(=O)NC2=O)c2cccc(C3CN([C@@H]4CCN(C[C@H]5CC[C@H](n6cc(NC(=O)c7cnn8ccc(N9C[C@H]%10C[C@@H]9CO%10)nc78)c(C(F)F)n6)CC5)C[C@@H]4F)C3)c21 (some centres unmarked) [I-673] |
| > 200 nM | < 10 nM | C[C@H]1CN(c2ccn3ncc(C(=O)Nc4cn([C@H]5CC[C@H](CN6CCN(CC7CN(c8cccc9c8n(C)c(=O)n9C8CCC(=O)NC8=O)C7)CC6)CC5)nc4C(F)F)c3n2)CCO1 (some centres unmarked) [I-674] |
| > 200 nM | < 10 nM | COc1ccc2c(c1N1CC(CN3CCN(C[C@H]4CC[C@H](n5cc(NC(=O)c6cnn7ccc(N8C[C@H]9C[C@@H]8CO9)nc67)c(C(F)F)n5)CC4)CC3)C1)n(C)c(=O)n2C1CCC(=O)NC1=O (some centres unmarked) [I-675] |
| > 200 nM | < 10 nM | Cn1c(=O)n(C2CCC(=O)NC2=O)c2ccc(F)c(N3CC(CN4CCN(C[C@H]5CC[C@H](n6cc(NC(=O)c7cnn8ccc(N9C[C@H]%10C[C@@H]9CO%10)nc78)c(C(F)F)n6)CC5)CC4)C3)c21 (some centres unmarked) [I-676] |
| > 200 nM | < 10 nM | Cn1c(=O)n(C2CCC(=O)NC2=O)c2cccc(N3CCN(C[C@]4(O)CC[C@@H](n5cc6cc(NC(=O)c7cccc(C(F)(F)F)n7)ncc6n5)CC4)CC3)c21 (some centres unmarked) [I-677] |
| > 200 nM | < 10 nM | Cn1c(=O)n(C2CCC(=O)NC2=O)c2cccc(N3CC(F)(CN4CCN(C[C@H]5CC[C@H](n6cc(NC(=O)c7cnn8ccc(N9C[C@H]%10C[C@@H]9CO%10)nc78)c(C(F)F)n6)CC5)CC4)C3)c21 (some centres unmarked) [I-678] |
| > 200 nM | < 10 nM | Cn1c(=O)n(C2CCC(=O)NC2=O)c2cccc(N3CCN([C@@H]4CCN(C[C@H]5CC[C@H](n6cc(NC(=O)c7cnn8ccc(N9C[C@H]%10C[C@@H]9CO%10)nc78)c(C(F)F)n6)CC5)C[C@@H]4F)CC3)c21 (some centres unmarked) [I-679] |
| > 200 nM | < 10 nM | C[C@@H]1CN(c2ccn3ncc(C(=O)Nc4cn([C@H]5CC[C@H](CN6CCN(CC7CN(c8cccc9c8n(C)c(=O)n9C8CCC(=O)NC8=O)C7)CC6)CC5)nc4C(F)F)c3n2)CCO1 (some centres unmarked) [I-680] |
| > 200 nM | < 10 nM | Cn1c(=O)n(C2CCC(=O)NC2=O)c2cccc(C3CN([C@@H]4CCN(C[C@H]5CC[C@H](n6cc(NC(=O)c7cnn8ccc(N9C[C@H]%10C[C@@H]9CO%10)nc78)c(C(F)F)n6)CC5)C[C@H]4F)C3)c21 (some centres unmarked) [I-681] |
| > 200 nM | < 10 nM | Cn1c(=O)n(C2CCC(=O)NC2=O)c2cccc(C3CN(C4CCN(C[C@H]5CC[C@H](n6cc(NC(=O)c7cnn8ccc(N9C[C@H]%10C[C@@H]9CO%10)nc78)c(C(F)F)n6)CC5)CC4(F)F)C3)c21 (some centres unmarked) [I-682] |
